Tested on: gene expression in D04 melanoma cells
Experiment: RNA-Seq differential expression analysis (DESeq2)
Assay type: cell-based, human
Description: Total RNA was isolated using the RNeasy mini Kit (QIAGEN) following the manufacturer's protocol. Quality check for extracted RNA was done using 2100 Bioanalyzer (Agilent Technologies, USA) or Tapestation System (Agilent Technologies, USA). […] For samples used for identification of MAPK-responsive lncRNAs, paired-end, 101-bp sequencing was performed by Centrillion Genomic Services (Centrillion Biosciences, USA) on an Illumina HiSeq 2000. For DE gene analysis of ASO-transfected D04 samples, paired-end, 2×150-bp sequencing was performed by Genewiz (USA) on a Illumina HiSeq.
Sequence reads were aligned to the human genome (hg19) using TopHat (Version 2.0.11).
Differential expression (DE) analysis was done using DESeq2. Differentially expressed genes were defined by more than 1.5-fold changes (log 2 >0.58 or <−0.58) in expression with FDR<0.05. GO term analysis was done using DAVID Functional Annotation Clustering analysis.
To examine the biomolecular changes upon TRASH-inhibition in melanoma, D04 cells were treated with TRASH-ASOs (SEQ ID NO:15) and Control-ASOs and RNA was extracted and used for RNA-Seq. […] These GO terms consisted of genes encoding growth factors, tyrosine kinases, G protein coupled receptor subunits, and collagen subunits. Scatter plot diagram showing differential gene expression after TRASH-ASO treatment compared to Control-ASO treatment. (cut-off for significance was adjusted p-value <0.05). Data was obtained from RNA-Seq of D04 melanoma cells, treatment period was three days. (FIG. 5c)

GACTGGAGATAATTAA (gapmer, pattern not given here) [SEQ ID NO: 15, GapmeR ASO targeting AC004540.4 (TRASH), exon region of both isoforms; used for in vitro experiments]
log2FoldChange AC010327.3 (ENSG00000267577, up-regulated list): 1.04 | log2FoldChange CARD8-AS1 (ENSG00000268001, up-regulated list): 0.7573 | log2FoldChange AC005261.3 (ENSG00000268713, up-regulated list): 0.7391 | log2FoldChange AL513477.1 (ENSG00000269896, up-regulated list): 1.066 | log2FoldChange AL606834.1 (ENSG00000269906, up-regulated list): 0.6043 | log2FoldChange ZNF559-ZNF177 (ENSG00000270011, up-regulated list): 0.8965 | log2FoldChange AC112220.2 (ENSG00000271020, up-regulated list): 0.8814 | log2FoldChange AC112220.4 (ENSG00000271643, up-regulated list): 0.8013 | log2FoldChange AC004890.3 (ENSG00000271664, up-regulated list): 0.9879 | log2FoldChange AL365181.3 (ENSG00000272405, up-regulated list): 1.112 | log2FoldChange AL365203.2 (ENSG00000273038, up-regulated list): 0.6423 | log2FoldChange AC037198.1 (ENSG00000276107, up-regulated list): 0.6896 | log2FoldChange AC245041.2 (ENSG00000276850, up-regulated list): 1.06 | log2FoldChange ENSG00000279184 (Gene.name NA) (ENSG00000279184, up-regulated list): 0.592 | log2FoldChange AC005261.5 (ENSG00000279541, up-regulated list): 0.6302 | log2FoldChange AC104581.4 (ENSG00000280046, up-regulated list): 0.8564 | log2FoldChange UCKL1-AS1 (ENSG00000280213, up-regulated list): 0.6201 | log2FoldChange LINC01173 (ENSG00000280744, up-regulated list): 0.9254 | log2FoldChange AC139493.2 (ENSG00000283235, up-regulated list): 0.8882 | log2FoldChange (EPHA3 (ENSG00000044524)): −0.647 | log2FoldChange (ETS2 (ENSG00000157557)): 1.279 | log2FoldChange (EVI2A (ENSG00000126860)): 1.514 | log2FoldChange (EXOC3L2 (ENSG00000283632)): −0.6947 | log2FoldChange (FAM129A (ENSG00000135842)): −0.6591 | log2FoldChange (FAM172BP (ENSG00000175841)): 2.273 | log2FoldChange (FAM180A (ENSG00000189320)): 2.047 | log2FoldChange (FAM198B-AS1 (ENSG00000248429)): −0.6307 | log2FoldChange (FBXO2 (ENSG00000116661)): −0.638 | log2FoldChange (FBXO9 (ENSG00000112146)): −0.5825 | log2FoldChange (FBXO40 (ENSG00000163833)): 1.589 | log2FoldChange (FGF1 (ENSG00000113578)): −0.5817 | log2FoldChange (FHDC1 (ENSG00000137460)): −0.7072 | log2FoldChange (FOSB (ENSG00000125740)): 2.191 | log2FoldChange (FRK (ENSG00000111816)): −0.6911 | log2FoldChange (FRRS1 (ENSG00000156869)): −0.5906 | log2FoldChange (FYN (ENSG00000010810)): −0.6273 | log2FoldChange (GABRA3 (ENSG00000011677)): −0.5841 | log2FoldChange (GAPDHP33 (ENSG00000240244)): 1.514 | log2FoldChange (GAREM1 (ENSG00000141441)): −0.6261 | log2FoldChange (GAS1 (ENSG00000180447)): −0.6542 | log2FoldChange (GAS7 (ENSG00000007237)): −0.5864 | log2FoldChange (GGT5 (ENSG00000099998)): −0.6741 | log2FoldChange (GNG2 (ENSG00000186469)): −0.6003 | log2FoldChange (GNGT2 (ENSG00000167083)): 1.241 | log2FoldChange (GPR162 (ENSG00000250510)): −0.5935 | log2FoldChange (GPRIN3 (ENSG00000185477)): −0.66 | log2FoldChange (GSG1 (ENSG00000111305)): 2.332 | log2FoldChange (H2BFWT (ENSG00000123569)): 2.336 | log2FoldChange (HDAC2-AS2 (ENSG00000228624)): 1.256 | log2FoldChange (HDAC4 (ENSG00000068024)): −0.5923 | log2FoldChange (HEY1 (ENSG00000164683)): −0.6645 | log2FoldChange (HHIPL2 (ENSG00000143512)): −0.6841 | log2FoldChange (HID1 (ENSG00000167861)): 1.325 | log2FoldChange (HLA-DMA (ENSG00000204257)): −0.582 | log2FoldChange (HLA-DMB (ENSG00000242574)): −0.6646 | log2FoldChange (HLA-DPB1 (ENSG00000223865)): −0.696 | log2FoldChange (HLA-DRA (ENSG00000204287)): −0.641 | log2FoldChange (HLA-V (ENSG00000181126)): 1.398 | log2FoldChange (HS6ST2 (ENSG00000171004)): −0.588 | log2FoldChange (HSD3B1 (ENSG00000203857)): −0.6356 | log2FoldChange (HSPA2 (ENSG00000126803)): −0.6741 | log2FoldChange (IFI27 (ENSG00000165949)): −0.6194 | log2FoldChange (IFI27L1 (ENSG00000165948)): −0.5945 | log2FoldChange (IGFBP5 (ENSG00000115461)): −0.631 | log2FoldChange (IGSF11 (ENSG00000144847)): −0.5994 | log2FoldChange (IL24 (ENSG00000162892)): 2.412 | log2FoldChange (IMMP2L (ENSG00000184903)): −0.6662 | log2FoldChange (ITGB2 (ENSG00000160255)): 1.646 | log2FoldChange (KCNK1 (ENSG00000135750)): 4.668 | log2FoldChange (KCNQ5 (ENSG00000185760)): −0.6919 | log2FoldChange (KIAA0319L (ENSG00000142687)): −0.5992 | log2FoldChange (KIF1A (ENSG00000130294)): 6.604 | log2FoldChange (KIRREL1 (ENSG00000183853)): −0.6846 | log2FoldChange (KISS1 (ENSG00000170498)): 1.679 | log2FoldChange (KITLG (ENSG00000049130)): −0.5925 | log2FoldChange (KLK2 (ENSG00000167751)): 2.321 | log2FoldChange (KRT15 (ENSG00000171346)): 1.605 | log2FoldChange (KRT34 (ENSG00000131737)): 3.32 | log2FoldChange (KRT73-AS1 (ENSG00000257495)): 2.888 | log2FoldChange (KRT75 (ENSG00000170454)): 1.915 | log2FoldChange (LBH (ENSG00000213626)): −0.6972 | log2FoldChange (LCK (ENSG00000182866)): 1.307 | log2FoldChange (LCN2 (ENSG00000148346)): 1.647 | log2FoldChange (LDHD (ENSG00000166816)): 1.623 | log2FoldChange (LDLR (ENSG00000130164)): −0.588 | log2FoldChange (LIFR (ENSG00000113594)): −0.5862 | log2FoldChange (LINC00520 (ENSG00000258791)): 2.38
